Results as given in PubChem BioAssay AID1963980 (Molecular Pharmacology Branch, DTP, NCI, 2024).

Test system: 475296-252-R-J1-PDC spheroid viability
Assay: Anticancer human tumor 475296-252-R-J1-PDC patient-derived rectal carcinoma cell line growth inhibition [PI3K]
Settings: spheroids with HUVEC and MSC; for IC50: curve of first compound; for viability, T/C: stronger effect = lower value
Method in brief: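 Combination activity was assessed by viability in multicellular tumor spheroids carrying HUVEC and MSC components. Agents were tested with PI3K inhibitors from a Cmax-based top dose (or 10 microM) downward in half-log increments.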
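Note: spheroids exposed to agents for seven days before readout.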

Compound `C[C@@H](NC(=O)c1ncnc(N)c1Cl)c1ncc(C(=O)Nc2cc(C(F)(F)F)c(Cl)cn2)s1` + CC(Nc1ncnc2nc[nH]c12)c1cc2cccc(Cl)c2c(=O)n1-c1ccccc1 has an IC50 (second compound 0.0316 µM) of over 10 µM, an IC50 (second compound 0.1 µM) of over 10 µM and an IC50 (second compound 0.316 µM) of over 10 µM. It also gave an IC50 (second compound 1 µM) of over 10 µM, an IC50 (second compound 3.16 µM) of over 10 µM and an IC50 (second compound 10 µM) of over 10 µM. For the same compound, the viability, T/C (second compound 0.0316 µM, first compound 0.0316 µM) was 77.6%, the viability, T/C (second compound 0.0316 µM, first compound 0.1 µM) was 90.2% and the viability, T/C (second compound 0.0316 µM, first compound 0.316 µM) was 109%. It also gave a viability, T/C (second compound 0.0316 µM, first compound 1 µM) of 114%, a viability, T/C (second compound 0.0316 µM, first compound 3.16 µM) of 102% and a viability, T/C (second compound 0.0316 µM, first compound 10 µM) of 91.5%. For the same compound, the viability, T/C (second compound 0.1 µM, first compound 0.0316 µM) was 91%, the viability, T/C (second compound 0.1 µM, first compound 0.1 µM) was 92.5% and the viability, T/C (second compound 0.1 µM, first compound 0.316 µM) was 96.7%. The viability, T/C (second compound 0.1 µM, first compound 1 µM) was 109%, the viability, T/C (second compound 0.1 µM, first compound 3.16 µM) was 115% and the viability, T/C (second compound 0.1 µM, first compound 10 µM) was 92%. For the same compound, the viability, T/C (second compound 0.316 µM, first compound 0.0316 µM) was 89.7%, the viability, T/C (second compound 0.316 µM, first compound 0.1 µM) was 86.4% and the viability, T/C (second compound 0.316 µM, first compound 0.316 µM) was 88.2%. It also gave a viability, T/C (second compound 0.316 µM, first compound 1 µM) of 96.7%, a viability, T/C (second compound 0.316 µM, first compound 3.16 µM) of 108% and a viability, T/C (second compound 0.316 µM, first compound 10 µM) of 92.2%. The viability, T/C (second compound 1 µM, first compound 0.0316 µM) was 94.4%, the viability, T/C (second compound 1 µM, first compound 0.1 µM) was 90.5% and the viability, T/C (second compound 1 µM, first compound 0.316 µM) was 91%. For the same compound, the viability, T/C (second compound 1 µM, first compound 1 µM) was 112%, the viability, T/C (second compound 1 µM, first compound 3.16 µM) was 106% and the viability, T/C (second compound 1 µM, first compound 10 µM) was 75.5%. It also gave a viability, T/C (second compound 3.16 µM, first compound 0.0316 µM) of 89.3%, a viability, T/C (second compound 3.16 µM, first compound 0.1 µM) of 94.8% and a viability, T/C (second compound 3.16 µM, first compound 0.316 µM) of 82%. For the same compound, the viability, T/C (second compound 3.16 µM, first compound 1 µM) was 102%, the viability, T/C (second compound 3.16 µM, first compound 3.16 µM) was 110% and the viability, T/C (second compound 3.16 µM, first compound 10 µM) was 67.4%. The viability, T/C (second compound 10 µM, first compound 0.0316 µM) was 87.7%, the viability, T/C (second compound 10 µM, first compound 0.1 µM) was 84.8% and the viability, T/C (second compound 10 µM, first compound 0.316 µM) was 93.5%. The viability, T/C (second compound 10 µM, first compound 1 µM) was 92.8%, the viability, T/C (second compound 10 µM, first compound 3.16 µM) was 87.1% and the viability, T/C (second compound 10 µM, first compound 10 µM) was 63.4%.
